In PubChem BioAssay (NCI):
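Tested at 5 concentrations; 48 h exposure; 96-well plates; endpoints linearly interpolated, else capped at highest concentration. TGI is the concentration that stops growth completely.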

Tests used:
Experiment in all cases: DTP human tumour cell line panel, 48 h
[1] = tested on: A498 renal
[2] = tested on: A549 NSCLC
[3] = tested on: CAKI-1 renal
[4] = tested on: HOP-62 NSCLC
[5] = tested on: HOP-92 NSCLC
[6] = tested on: HT29 colon
[7] = tested on: OVCAR-5 ovarian
[8] = tested on: SK-MEL-5 melanoma
[9] = tested on: BT-549 breast
[10] = tested on: MDA-MB-231 breast

Row | Compound | TGI [1] [µM] | TGI [2] [µM] | TGI [3] [µM] | TGI [4] [µM] | TGI [5] [µM] | TGI [6] [µM] | TGI [7] [µM] | TGI [8] [µM] | TGI [9] [µM] | TGI [10] [µM]
1 | Cc1ccc2c(c1)c(=O)c1c(NCCN(C)C)ccc3nnn2c31 | 12 | 13.6 | 12.3 | 21.5 | 11.5 | 12 | 12.4 | 14.1 | – | –
2 | CCCCc1ccc2[n+](c1)C(C(=O)OCC)=PC2 (centres undefined) | > 100 | > 100 | > 100 | > 100 | > 100 | > 100 | > 100 | > 100 | > 100 | –
3 | Cc1cccc(NC(=O)CC(=O)N2N=C(N3c4ccccc4Sc4ccccc43)CC2c2ccccc2)c1 (centres undefined) | > 100 | > 100 | – | > 100 | > 100 | > 100 | > 100 | > 100 | > 100 | > 100
4 | O=c1[nH]c(=O)n(C2CC(O)C(CO)O2)cc1C#Cc1ccc(C(F)(F)F)cc1 (centres undefined) | – | > 100 | – | > 100 | > 100 | > 100 | > 100 | > 100 | – | –
5 | COc1cc(N=Nc2cccc(S(=O)(=O)O)c2)c(C)cc1N=Nc1ccc(/C=C/c2ccc(N=[N+]([O-])c3ccc(/C=C/c4ccc(N=Nc5cc(C)c(N=Nc6cccc(S(=O)(=O)O)c6)cc5OC)cc4)c(S(=O)(=O)O)c3)cc2S(=O)(=O)O)cc1 | > 100 | > 100 | – | > 100 | > 100 | > 100 | > 100 | > 100 | – | –
6 | CSc1c(C(C)=O)c(O)n(-c2ccc(Cl)cc2)c(=O)c1C#N | 93.5 | > 100 | 53.2 | – | – | > 100 | > 100 | > 100 | > 100 | > 100
7 | NC1=NS(=O)(=O)N=C(N)C1=Cc1ccc([N+](=O)[O-])o1 | – | > 100 | – | – | 26.7 | 34 | 32.9 | 28.6 | – | –
8 | CC(C)=CCN(N=O)c1ncnc2nc[nH]c12 | > 100 | > 100 | > 100 | > 100 | > 100 | > 100 | > 100 | > 100 | – | > 100
9 | CC(=O)N(C(C)=O)n1c(Cc2ccc(Cl)cc2)nn(C(C)=O)c1=O | > 100 | > 100 | – | > 100 | – | > 100 | > 100 | > 100 | > 100 | > 100
10 | CC1=NNC(N)=N/C1=C/C(Sc1ccc(Cl)cc1)c1cccs1 (centres undefined) | 37.1 | 38.8 | 53.9 | 28.7 | > 100 | 25.4 | 35.2 | 25.6 | > 100 | –
11 | COc1cc(C(=O)Nc2nnc(S(N)(=O)=O)s2)cc(OC)c1OC | – | > 100 | > 100 | > 100 | > 100 | – | > 100 | > 100 | > 100 | > 100
12 | Cc1ccc2ccccc2c1CC1S(=O)(=O)OCCOS1(=O)=O | – | 29.6 | 24.4 | 28.5 | – | 27.1 | 24.4 | 26.4 | 25.7 | 29.1
13 | C/C(=N\N(C)C)C(CN(C)C)C(c1ccccc1)c1c(O)c2ccccc2oc1=O (centres undefined) | – | > 100 | – | – | > 100 | > 100 | > 100 | > 100 | – | –
14 | O=C(Cc1nc2ccc(C(=O)c3ccccc3)cc2[nH]c1=O)C(=O)Nc1ccccc1[N+](=O)[O-] | > 100 | > 100 | > 100 | – | > 100 | > 100 | > 100 | > 100 | > 100 | > 100
15 | CC(=O)N[C@@H](Cc1ccc(O)cn1)C(=O)NCc1ccc2c(c1)OCO2 | > 100 | > 100 | > 100 | > 100 | > 100 | > 100 | > 100 | > 100 | > 100 | –
16 | CC(=O)O[C@]12CCCCCCC1C1(O)C(O)CCC[C@H]12 (some centres undefined) | – | > 100 | – | > 100 | – | > 100 | – | > 100 | – | –
17 | CC1=NN(C(=O)CC(=O)Nc2cccc(Cl)c2)C(=O)C1N=Nc1ccc(S(N)(=O)=O)cc1 (centres undefined) | > 100 | > 100 | > 100 | > 100 | > 100 | > 100 | > 100 | > 100 | – | –
18 | COc1cc(C2SCC(=O)N2NC(=O)c2ccc(NC(C)=O)cc2)cc(OC)c1OC (centres undefined) | > 100 | > 100 | – | > 100 | > 100 | > 100 | > 100 | > 100 | > 100 | > 100

Row | Compound | TGI [1] [µM] | TGI [2] [µM] | TGI [3] [µM] | TGI [4] [µM] | TGI [5] [µM] | TGI [6] [µM] | TGI [7] [µM] | TGI [8] [µM] | TGI [9] [µM] | TGI [10] [µM]
19 | C#CC(C)(C)Oc1cc(OC)c2c(=O)c3ccccc3n(C)c2c1 | – | 74.1 | – | > 100 | – | > 100 | 98.3 | 23.4 | – | 56.1
20 | COc1ccc(/C=N/Nc2[nH]c(=S)nc3[nH]ncc23)cc1 | > 100 | > 100 | > 100 | 77.9 | – | > 100 | > 100 | > 100 | > 100 | > 100
21 | O=C(c1cccs1)N(C(=S)N1CCN(c2ccccc2)CC1)c1ccccc1 | – | > 100 | > 100 | > 100 | > 100 | > 100 | > 100 | > 100 | – | –
22 | CCOC(=O)C1C/C(C)=C(/C)SCCCS1 (centres undefined) | > 100 | > 100 | – | > 100 | > 100 | > 100 | > 100 | > 100 | – | > 100
23 | Cn1c(N)c(/C=N/NC(=O)CC#N)c(=O)n(C)c1=O | > 100 | > 100 | > 100 | > 100 | – | > 100 | > 100 | > 100 | > 100 | > 100
24 | O=C1c2cc(Cl)ccc2-n2c(noc2=O)C2CSCN12 (centres undefined) | > 100 | > 100 | > 100 | > 100 | – | > 100 | > 100 | > 100 | > 100 | > 100
25 | CC1(C)CC(=O)C(/C=N/c2nc(-c3ccc(Br)cc3)cs2)=C(O)C1 | – | > 100 | 63.3 | > 100 | > 100 | > 100 | > 100 | > 100 | 37.8 | > 100
26 | O=C1CSC2(CC(/C=C/C=C/c3ccccc3)=NN2c2cccc(S(=O)(=O)O)c2)N1c1nc2ccccc2s1 (centres undefined) | > 100 | > 100 | > 100 | – | > 100 | > 100 | > 100 | > 100 | > 100 | > 100
27 | c1ccc(C2=NN3CN(N2)c2ccccc2OCCCOc2ccccc23)cc1 | – | > 100 | – | > 100 | – | > 100 | > 100 | > 100 | – | –
28 | CCOC(=O)/C=C1\Nc2ccccc2C12CCc1c([nH]c3ccccc13)C2C(=O)OCC (centres undefined) | > 100 | > 100 | > 100 | > 100 | – | > 100 | > 100 | > 100 | > 100 | > 100
29 | COc1cc(C2C(Cl)C(=O)N2c2ccc(Br)cc2)cc(I)c1O (centres undefined) | > 100 | > 100 | > 100 | > 100 | – | > 100 | > 100 | > 100 | > 100 | > 100
30 | CN(C)c1ccc(-c2nc(-c3cc4c(ccc5ccccc54)oc3=O)cs2)cc1 | – | > 100 | > 100 | > 100 | > 100 | > 100 | > 100 | > 100 | > 100 | > 100
31 | COC(=O)C12CC(C3CC31)C1CC12 (centres undefined) | > 100 | > 100 | > 100 | > 100 | > 100 | > 100 | > 100 | > 100 | – | –
32 | Oc1ccc(-c2c3c(nc4c2CCc2ccc(Br)cc2-4)-c2cc(Br)ccc2CC3)cc1 | 48.6 | 40.8 | 33 | 33.6 | 31.1 | – | 40.6 | 35.7 | 43.1 | 34.5
33 | CCCCCCCCCCCCC(=O)NCC(=O)NC(Cc1ccccc1)C(=O)Oc1ccc([N+](=O)[O-])cc1 (centres undefined) | > 100 | > 100 | > 100 | > 100 | – | > 100 | > 100 | > 100 | > 100 | > 100
34 | CC(C)=CC(=O)O[C@@H]1CC(C)(C)CC2C3=CCC4[C@]56CC[C@](O)(OC5)C(C)(C)C6CC[C@@]4(C)C3(C)CC[C@]21C(=O)O (some centres undefined) | > 100 | > 100 | > 100 | > 100 | – | > 100 | > 100 | > 100 | > 100 | > 100
35 | c1ccc2c(c1)CC1c3[nH]c4ccccc4c3CCN21 (centres undefined) | – | > 10 | > 10 | > 10 | > 10 | > 10 | > 10 | > 10 | > 10 | > 10
36 | C=C(CCOC)CCC1CCCCC(=C)C1=O (centres undefined) | > 100 | > 100 | > 100 | > 100 | – | > 100 | > 100 | > 100 | > 100 | > 100
